Patent US4080467A, “Pharmaceutical compositions comprising 1,3-dithiolan-2-ylidene malonate derivatives” (Nihon Nohyaku Co., Ltd., priority 1976, dated 1978)

Assays:
[1] = tested on: Acute Liver Damage associated with Centrilobular Necrosis (carbon tetrachloride); assay: Protective effect on acute liver damage associated with centrilobular necrosis (carbon tetrachloride model); assay type: in vivo, mice (four-week-old male, dd strain); details: 250 mg/kg oral 6 h before CCl4, average of 5 to 6 mice; for p-GPT (plasma glutamic-pyruvic transaminase activity): 24 h after CCl4, values over 1,000 regarded as 1,000; for Liver Damage Index: 0 normal, 2 slightly recognized, 4 clearly observable damage, 6 heavy damage
Source text: Carbon tetrachloride (CCl4) administration induces centrilobular necrosis of the liver associated with loss of diphosphopyridine nucleotide, hepatic glycogen, coenzyme A and increase in neutral fat. Release of several enzymes from the hepatocytes, and increases of enzyme activities in the plasma are recognized as the result of the damage of the liver. A suitable means for evaluating the degree of damage induced by CCl4 or the degree of protection afforded by drugs is to study the plasma glutamic-pyruvic transaminase (p-GPT) activity.
Method: The test compounds were dissolved or suspended in olive oil and administered orally at the dose of 250 mg/kg to the mice (Four-week-old male mice-dd strain). After 6 hours, CCl4 was administered orally (0.05 ml/kg as olive oil solution). Animals were killed 24 hours after CCl4 administration, and the liver was grossly observed. The plasma was obtained by centrifugation. Activities of p-GPT were determined by the method of Reitman and Frankel and expressed in Karmen units.
Score for liver damage was as follows: […]
4 Clearly observable damage
Each figure indicates average of 5 to 6 mice. Values of p-GPT over 1,000 Karmen unit regarded as 1,000 for calculation of average for convenience.

[2] = tested on: acute liver damage associated with discrete lobular necrosis (D-galactosamine); assay: Protective effect on acute hepatitis with mesenchymal reaction and discrete lobular necrosis (D-galactosamine model); assay type: in vivo, male rat (SD strain); details: 100 mg/kg oral 6 h before D-galactosamine
Procedure: D-Galactosamine is a compound which induces a discrete lobular necrosis associated with mesenchymal reaction similar to the change observed in human viral hepatitis, so that it is frequently used in producing a model for viral hepatitis.
The compound of this invention or anethol trithion was administered orally to the male rat (SD strain) at the dose of 100 mg/kg. Six hours after it, D-galacetosamine was intraperitoneally administered at the dose of 600 mg/kg. Four hours after it, an additional 300 mg/kg was administered intraperitoneally. Eight hours after it, the animals were sacrificed to collect the blood samples. P-GPT activity and triglyceride in the liver were measured to evaluate the effect of the compound of this invention.

in vivo = details: mouse, po
[3] = Effect on concentration of ethyl alcohol in the blood; assay type: in vivo, mice; details: 250 mg/kg oral 6 h before ethyl alcohol 1,000 mg/kg
Procedure: The test compounds are dissolved or suspended in olive oil and administered orally at the dose of 250 mg/kg to the mice. After 6 hours, 1,000 mg/kg of ethyl alcohol was given orally. Blood was taken in a capillary from caudal vein at the time indicated in the results. The plasma was obtained by centrifugation. The concentration of ethyl alcohol in the plasma was measured by FID type gas liquid chromatography. Five mice were used for each group.

[4] = tested on: bile flow and biliary salt; assay: Cholagogic action: bile flow and excretion of biliary salt; assay type: in vivo, male rat (4 week-aged, SD-JCL strain); details: 200 mg/kg oral; for bile flow / excretion of biliary salt: before treatment = 100
Procedure: The male rat (4 week-aged, SD-JCL strain) was anesthetized with sodium pentobarbital (37.5 mg/kg, intraperitoneal injection). The abdominal cavity was opened through a midline incision. The common bile duct was catheterized with polyethylene tube o.d. 0.8 mm. The catheter was brought to the outside through the abdominal incision wound prior to closing. Bile was collected from the catheter continuously with time intervals of one hour. The quantity of bile produced in one hour was determined by weighing and that of biliary salt was determined by enzymatic method (Ikagaku Jikkenho Koza 1B, Biological Constituents II, edited by Tamio YAMAKAWA). The amount of biliary salts was represented as cholic acid equivalent.
In the representation of the results, the quantities of bile and biliary salts produced in one hour prior to the administration of drug were taken as 100. The compound of this invention was orally administered at the dose of 200 mg/kg. As reference anethol trithion was used.

[5] = tested on: Chronic Liver Damage (thioacetamide); assay: Therapeutic effect on chronic liver damage (thioacetamide model), BSP test; assay type: in vivo, rats (Sprague Dawley strain); details: 12 times TAA 100 mg/kg, then diet + 0.2% compound
Procedure: In the tests of this Example, TAA was repeatedly administered to animals to prepare test animals suffering from somewhat chronic liver damages, and then the present compounds were administered thereto to know whether or not the compounds were effective against chronic hepatitis.
The degree of the liver damage and the therapeutic effects of the compounds were evaluated according to BSP test. The BSP test is a method in which BSP (sulfobromophthalein sodium), a dye known to be quickly metabolized in and excreted from the liver, is intravenously injected into animals and, after a definite period of time, the blood is taken out to measure the amount of BSP remaining in the plasma. In case the animals are suffering from the liver damage, the dye will remain, according to the degree of the damage, at the stage where a major portion of BSP is metabolized and excreted in the case of normal animals.
Five groups of rats (Sprague Dawley strain) were treated as follows:
Group A: The rats were orally administered with 100 mg/kg of thioacetamide,at 3 days intervals for 36 days (12 times of the administration), then were submitted for 10 days to a normal diet.
Group B: The rats were orally administered with 100 mg/kg of thioacetamide at 3 days intervals for 36 days (12 times of the administration), then were submitted for 10 days to the normal diet + 0.2% of compound 4.
Group C: The rats were orally administered with 100 mg/kg of thioacetamide at 3 days intervals for 36 days (12 times of the administration) then were submitted for 10 days to the normal diet + 0.2% of compound 2.
Group D: The rats were orally administered with 100 mg/kg of thioacetamide at 3 days intervals for 36 days (12 times of the administration) then were submitted for 10 days to the normal diet + 0.2% of anethol trithion.
Group E: The rats were submitted to the normal diet as the control.
Five rats were sacrified from each group at appropriate intervals for BSP (sulfobromophthalein) test, the results of which were shown as amounts (mg) of BSP remaining in 1 dl of plasma.

[6] = tested on: fatty liver (carbon tetrachloride); assay: Therapeutic effect on fatty liver (carbon tetrachloride model); assay type: in vivo, male rat (35 week-old, SD strain)
Procedure: Carbon tetrachloride also induces fatty liver, but the picture of disease differs from the case of ethionine-induced fatty liver. Carbon tetrachloride is generally considered to damage microsome and thereby to inhibit protein synthesis and induce fatty liver.
Carbon tetrachloride was subscutaneously administered to 35 week-old male rat (SD strain) for 4 days at the dose of 1 ml/kg. The treated animals were left for 3 days after the last administration to maximize the manifestation of fatty liver.
Administration of the compounds of this invention was commenced on the fourth day after the administration of carbon tetrachloride was completed. It was orally given everyday for 10 days at the dose of 50 or 250 mg/kg. On the 11th day, the animals were sacrificed. The therapeutic effect was evaluated by determining the content of lipid in the liver (triglyceride and total lipid) and examining the histopathological changes. Triglyceride and total lipid were determined colorimetrically by chromotropic acid method and Bragdon's oxidation method, respectively.
Indices for the histopathological change is as follows.

fatty liver (ethionine) = assay: Effect on fatty liver (ethionine model); assay type: in vivo, male mice (4 week-old, dd-strain); details: diet plus 0.2% ethionine and 0.2% compound, 5 days
Source text: There are known many factors inducing fatty liver. But, the fatty liver is grouped into a couple of patterns from the mechanism of lipid accumulation or metabolism of lipoprotein in the liver. Ethionine is a typical compound inducing fatty liver. It inhibits RNA and protein syntheses and destructs polysome of the liver cell. Fatty liver is induced by the inhibition of protein synthesis and the disturbance of lipoprotein secretion.
Usually, fatty liver is closely related to the accumulation of triglyceride in the liver. In the present example, the degree of fatty liver and protective or therapeutic effect against the fatty liver was evaluted by measurement of triglyceride content in the liver.
The animals used in the test were 4 week-old male mice (dd-strain).
The mice were submitted for 5 days to a normal diet (control), to the normal diet plus 0.2% ethionine (positive control), to the normal diet plus 0.2% ethionine and 0.2% of the compound of this invention, or to the normal diet plus 0.2% ethionine and 0.2% methionine which was the referential diet. At the end of the period of 5 days, content of triglyceride in the liver was studied colorimetrically by chromotropic acid method and the result was represented as triolein content (mg/g-liver).

[7] = 50 mg/kg oral everyday for 10 days
[8] = 250 mg/kg oral everyday for 10 days

## CCOC(=O)C(C(=O)OCC)=C1SCCS1 [Compound 2, Diethyl 1,3-dithiolan-2-ylidene malonate]
[1]
  p-GPT (plasma glutamic-pyruvic transaminase activity): 47 Karmen units
  Liver Damage Index: 0.8
[2]
  Triglyceride in liver: 7.2 ± 1.5 mg/g
  p-GPT: 68±32 Karmen unit
In vivo
  LD50: 1110 mg/kg
[3]; 0 min
  Concentration of Ethyl alcohol in Plasma: 8±3 ppm
[3]; 5 min
  Concentration of Ethyl alcohol in Plasma: 712±75 ppm
[3]; 15 min
  Concentration of Ethyl alcohol in Plasma: 65±98 ppm
[3]; 30 min
  Concentration of Ethyl alcohol in Plasma: 422±100 ppm
[3]; 60 min
  Concentration of Ethyl alcohol in Plasma: 15±8 ppm
[4]; 1 hour after treatment
  bile flow: 108±3.8
  excretion of biliary salt: 108±18
[4]; 2 hours after treatment
  bile flow: 116±6.2
  excretion of biliary salt: 120±12
[4]; 3 hours after treatment
  bile flow: 109±8.3
  excretion of biliary salt: 133±18
[4]; 4 hours after treatment
  bile flow: 108±8.5
  excretion of biliary salt: 120±21
[4]; 5 hours after treatment
  bile flow: 98±3.8
  excretion of biliary salt: 86±8.9
[4]; versus control
  Amount of total biliary salts excreted for 5 hours relative to control: 1.63 times
  Quantity of total excreted bile for 5 hours relative to control: 1.15 times
[5]; 2 Days
  Concentration of BSP in plasma: 9.8 ± 3.1 mg/dL
[5]; 5 Days
  Concentration of BSP in plasma: 4.7 ± 0.8 mg/dL
[5]; 10 Days
  Concentration of BSP in plasma: 0.8 ± 0.2 mg/dL

## CC(C)OC(=O)C(C(=O)OC(C)C)=C1SCC[S+]1[O-] (stereo not drawn) [Compound 31, 2-(Diisopropoxycarbonyl)methyliden-1,3-dithiolan-1-oxide]
[1]
  p-GPT (plasma glutamic-pyruvic transaminase activity): 121 Karmen units
  Liver Damage Index: 0.8
In vivo
  LD50: > 6000 mg/kg
[3]; 0 min
  Concentration of Ethyl alcohol in Plasma: 12±8 ppm
[3]; 5 min
  Concentration of Ethyl alcohol in Plasma: 720±145 ppm
[3]; 15 min
  Concentration of Ethyl alcohol in Plasma: 583±122 ppm
[3]; 30 min
  Concentration of Ethyl alcohol in Plasma: 343±13 ppm
[3]; 60 min
  Concentration of Ethyl alcohol in Plasma: 5±2 ppm

## CCOC(=O)C(C(=O)OC(C)C)=C1SCCS1 [Compound 21, Ethyl isopropyl 1,3-dithiolan-2-ylidene malonate]
[1]
  p-GPT (plasma glutamic-pyruvic transaminase activity): 64 Karmen units
  Liver Damage Index: 0.6
[6]; [7]
  Total lipid: 97.8 ± 10.3 mg/g-liver
  Triglyceride: 40.6 ± 6.8 mg/g-liver
[6]; [8]
  Total lipid: 70.2 ± 8.3 mg/g-liver
  Triglyceride: 24.8 ± 3.2 mg/g-liver
[2]
  Triglyceride in liver: 6.8 ± 1.2 mg/g
  p-GPT: 47±21 Karmen unit
In vivo
  LD50: 2230 mg/kg

## CCOC(=O)C(C(=O)SCC)=C1SCCS1 [Compound 26]
[1]
  p-GPT (plasma glutamic-pyruvic transaminase activity): 62 Karmen units
  Liver Damage Index: 0.6
[3]; 0 min
  Concentration of Ethyl alcohol in Plasma: 10±3 ppm
[3]; 5 min
  Concentration of Ethyl alcohol in Plasma: 690±102 ppm
[3]; 15 min
  Concentration of Ethyl alcohol in Plasma: 694±86 ppm
[3]; 30 min
  Concentration of Ethyl alcohol in Plasma: 432±96 ppm
[3]; 60 min
  Concentration of Ethyl alcohol in Plasma: 12±8 ppm

## CSCC[C@H](N)C(=O)O [Methionine, methionine, reference compound]
[6]; [8]
  Total lipid: 168.6 ± 21.6 mg/g-liver
  Triglyceride: 58.2 ± 9.6 mg/g-liver
[6]; 250 mg/kg oral, 10 days, one symbol per animal
  Degree of fatty liver (histopathological examination): + ± and ++ ++ ++ ±
[6]; carbon tetrachloride, in words
  therapeutic effect on fatty liver: hardly exhibited a therapeutic effect
Fatty liver (ethionine)
  Triglyceride (content in the liver, as triolein): 13.2 ± 2.1 mg/g

## CCOC(=O)C(C(=O)OC(C)CC)=C1SCCS1 (stereo not drawn) [Compound 22]
[1]
  p-GPT (plasma glutamic-pyruvic transaminase activity): 67 Karmen units
  Liver Damage Index: 0.4
Fatty liver (ethionine)
  Triglyceride (content in the liver, as triolein): 11.3 ± 0.96 mg/g

## CCOC(=O)C(C(=O)OCC)=C1SCC[S+]1[O-] (stereo not drawn) [Compound 30]
[1]
  p-GPT (plasma glutamic-pyruvic transaminase activity): 156 Karmen units
  Liver Damage Index: 0.8
Fatty liver (ethionine)
  Triglyceride (content in the liver, as triolein): 12.6 ± 2.3 mg/g
